Patent US20210236541A1, “IODOPHOR COMPOSITION WITH IMPROVED STABILITY IN THE PRESENCE OF ORGANIC MATERIAL” (priority 2014, published 2021)

Experiments:
Format in all cases: cell-based
E. coli ATCC 25922 [1] = test: Nebulisation simulation, kill efficiency on inoculated bandage; details: for performance of the novel iodophor relative to the labelled antibiotic: nebulised, 15 minutes, Levofloxacin and Polymyxin B at all concentrations, Gentamycin 0.1 mg and 1 mg
E. coli ATCC 25922 [2] = test: MIC micro-broth dilution
bacterial cells = tested on: bacterial cells
P. aeruginosa = test: Nebulisation simulation, kill efficiency on inoculated bandage; details: 1 mL nebulised, 15 minutes exposure, FIG. 6

Polymyxin B was tested, and the “performance of the novel iodophor relative to the labelled antibiotic” value (E. coli ATCC 25922 [1]) was “equivalent performance”.

For polyvinylpyrrolidone iodine [PVP-I], the MIC (E. coli ATCC 25922 [2]; in lysogeny broth (LB), text of b30) was 500 mg/L, the “minimum inhibitory concentration (MIC)” value (E. coli ATCC 25922 [2]; in water) was under 1 mg/L and the MBC value (E. coli ATCC 25922 [2]; organic rich growth medium (such as lysogeny broth)) was over 500 mg/L.

`OO` [Hydrogen peroxide] was tested, and the “recovery of viable bacterial cells” value (bacterial cells) was “recovery of viable cells”, the killing efficiency (E. coli ATCC 25922 [1]; 1 mL nebulised, 15 minutes exposure, FIG. 5) was “limited killing efficiency” and the killing efficiency (P. aeruginosa) was “limited killing efficiency”.

With Gentamycin the “performance of the novel iodophor relative to the labelled antibiotic” value (E. coli ATCC 25922 [1]) was “superior”.
